Values quoted from earlier work as cited in patent US6441198B1, “Podophyllotoxin dimer as DNA topoisomerase II inhibitors, and a process for the preparation therefore” (Council of Scientific and Industrial Research, priority 2000, dated 2002).

Tests used:
[1] = system: human DNA topoisomerase II; conditions: relative to etoposide
[2] = system: human tumour cell lines
[3] = system: cellular protein-DNA complex formation; conditions: relative to etoposide

COc1cc(C2c3cc4c(cc3C(Nc3ccc(F)cc3)C3COC(=O)C23)OCO4)cc(OC)c1O (stereo not drawn) [NPF, 4′-0-demethyl-4β-(4″-fluoroanilino)-4-desoxypodophyllotoxin]
potency in inhibiting human DNA topoisomerase II compared to etoposide [1]: 10 fold | activity in in vitro human tumour cell lines assay [2]: very active | activity in cellular protein-DNA complex formation compared to etoposide [3]: 113 times
